Data taken from patent US20060014193A1, “Nucleoside phosphoramidates and nucleoside phosphoramidases” (priority 2004, published 2006).

Tests used:
Assay in all cases: 31P NMR phosphoramidase assay of purified protein
Format in all cases: biochemical
Details in all cases: 10 mM substrate, pH 7.2, 22° C.
hHINT1 = hHINT1 (Homo sapiens, UniProt P49773)
Protocol: (§1) Phosphoramidase activity in cell lysates was measured by the ^1H-decoupling mode of phosphorus-31 NMR spectroscopy (Varian VAC-300 spectrometer), which can clearly distinguish the substrate, AMP-NH2, and the product, adenosine 5′-monophosphate (AMP). NMR spectrometry is suitable for quantitation by integration of the area under the peak, which is proportional to the amount of nuclei present. The relative ratio of peak areas can be used to calculate the amount of turnover corrected based on a standard curve.
(§2) Cell lysates from E. coli Tuner(DE3)pLacI cells (Novagen) were obtained by treatment with lysozyme (1 mg/ml) and the DNA was precipitated by protamine sulfate followed by centrifugation to remove cell debris. The supernatant was dialyzed extensively against Buffer A (20 mM Tris (pH 7.0); 1 mM EDTA; 1 mM DTT, 0.01 mM PMSF) to remove cellular phosphates and nucleotides. Phosphate free cell lysates (0.75 mg total protein) were incubated with 5 mM AMP-NH2 in 0.5 ml reaction buffer (0.5 mM MgCl2, 20 mM HEPES (pH 7.2)) at 37° C. for intervals of 15 min, 30 min, and 12 h. The reactions were terminated by snap freezing in a dry ice/acetone slush bath and lyophilized for 5 h. The samples were then dissolved in NMR buffer (600 μL, 50 mM EDTA, 20 mM HEPES (pH 7.2), and 1 mM TMP (trimethylphosphate, internal standard)) and the insoluble portion was spun down by centrifugation at 12,500×g for 5 min. A ^31P NMR spectrum was then collected for the supernatant. For the low pH control experiment, 10 mM AMP-NH2 in reaction buffer (500 μL, pH 2.0) was incubated at 37° C. for 12 h and the 31p signal was detected under the same conditions.
(§3) Five recombinant purified proteins were tested with three commercial available compounds (Sigma): AMP-NH2, adenosine 5′-monophosphomorpholidate (AMP-Mor), and guanosine 5′-monophosphomorpholidate (GMP-Mor) (FIG. 1). The compounds (10 mM) were incubated with proteins (2.5-10 μg) in the reaction buffer (500 μL, 0.5 mM MgCl2, 20 mM HEPES (pH 7.2)) at 22° C. for intervals of 36 and 66 min. The reactions were quenched by adding 5 M NaOH (20 μL), followed by snap freezing in a dry ice/acetone slush bath, and lyophilized. The sample preparation for ^31P NMR measurement was as described above for the cell-lysate experiment except that the pH was adjusted by the addition of 12 μL 6 M HCl before NMR spectra were collected.

E. coli hinT-DHFR = molecular target: T1, E. coli hinT-DHFR (Escherichia coli, UniProt P0ABQ4+P0ACE7)
T1 construct: made in house; host or cells: E. coli Tuner(DE3)pLacI
Protocol: as §1, §2, §3

E. coli hinT = molecular target: T2, E. coli hinT (Escherichia coli, UniProt P0ACE7)
T2 sequence (P0ACE7 1-119): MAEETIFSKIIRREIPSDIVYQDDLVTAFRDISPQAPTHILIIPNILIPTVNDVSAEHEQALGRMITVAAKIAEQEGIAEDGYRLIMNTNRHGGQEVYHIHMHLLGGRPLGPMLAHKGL
Protocol: as §1, §2, §3

In the case of `Nc1ncnc2c1ncn2[C@@H]1O[C@H](COP(N)(=O)O)[C@@H](O)[C@H]1O` [AMP-NH2, Adenosine 5′-monophosphoramidate], the Specific activity (hHINT1) was 196 ± 33 nmol nmol^−1 min^−1, the Specific activity (E. coli hinT-DHFR) was 753 ± 2 nmol nmol^−1 min^−1 and the Specific activity (E. coli hinT) was 526 ± 27 nmol nmol^−1 min^−1.
